Assay results as given in patent US12011444B2, “N-substituted indole derivatives as PGE2 receptor modulators” (Idorsia Pharmaceuticals Ltd, priority 2015, dated 2024).

How the values were obtained:
EP4 = EP4 (Homo sapiens (Human), UniProt P35408); assay: hEP4 cAMP assay (BT549 breast cancer cells, HTRF cAMP); format: cell-based; settings: antagonistic activity; mean values where measured multiple times
Protocol: Plate is pre-incubated 45 minutes at room temperature. Subsequently, 2.5 microliters of PGE2 (final conc. 6 nM) are transferred into the assay plate. Plate is incubated 30 minutes at room temperature.

EP2 = EP2 (Homo sapiens (Human), UniProt P43116);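 also: antagonism of PGE2-stimulated cAMP accumulation in SF295 human glioblastoma cells with endogenous EP2, cAMP read by HTRF, expressed relative to DMSO control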
Sequence of EP2 (P43116 whole entry): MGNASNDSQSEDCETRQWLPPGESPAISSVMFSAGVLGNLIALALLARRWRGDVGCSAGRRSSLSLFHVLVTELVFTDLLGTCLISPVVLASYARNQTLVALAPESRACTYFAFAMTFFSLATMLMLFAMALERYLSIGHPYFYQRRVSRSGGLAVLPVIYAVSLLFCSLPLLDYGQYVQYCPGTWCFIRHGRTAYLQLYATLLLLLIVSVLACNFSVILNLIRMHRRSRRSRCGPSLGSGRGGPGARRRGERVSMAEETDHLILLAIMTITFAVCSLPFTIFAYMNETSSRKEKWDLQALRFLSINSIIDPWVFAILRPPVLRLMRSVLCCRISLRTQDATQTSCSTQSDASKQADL

Sequence of EP4 (P35408 whole entry): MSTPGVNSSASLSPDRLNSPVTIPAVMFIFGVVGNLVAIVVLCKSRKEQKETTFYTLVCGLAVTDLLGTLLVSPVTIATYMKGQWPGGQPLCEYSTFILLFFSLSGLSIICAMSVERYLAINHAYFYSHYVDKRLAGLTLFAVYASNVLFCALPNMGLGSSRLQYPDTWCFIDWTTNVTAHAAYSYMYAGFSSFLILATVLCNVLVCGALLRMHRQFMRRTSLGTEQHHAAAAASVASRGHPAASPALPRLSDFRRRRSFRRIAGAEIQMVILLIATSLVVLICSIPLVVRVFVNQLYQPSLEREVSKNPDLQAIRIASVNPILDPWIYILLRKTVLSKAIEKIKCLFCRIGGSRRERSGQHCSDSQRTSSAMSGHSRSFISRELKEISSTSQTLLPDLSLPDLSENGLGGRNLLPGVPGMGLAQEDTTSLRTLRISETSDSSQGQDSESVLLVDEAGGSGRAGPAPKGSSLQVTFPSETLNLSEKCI

Row | SMILES | IC50 (EP4) [nM] | IC50 (EP2) [nM]
1 | COc1cc(F)cc2c1cc(C)n2CCNc1cc(-c2ccc(-c3cnccn3)cc2)ncn1 [Example 750, [2-(6-Fluoro-4-methoxy-2-methyl-indol-1-yl)-ethyl]-[6-(4-pyrazin-2-yl-phenyl)-pyrimidin-4-yl]-amine] | 91 | 16
2 | COc1cc(F)cc2c1cc(C)n2CCNc1cc(-c2ccc(-c3nccs3)cc2)ncn1 [Example 751, [2-(6-Fluoro-4-methoxy-2-methyl-indol-1-yl)-ethyl]-[6-(4-thiazol-2-yl-phenyl)-pyrimidin-4-yl]-amine] | 105 | 8
3 | COc1cc(F)cc2c1cc(C)n2CCNc1cc(-c2ccc(-c3ncc(C)n3C)cc2)ncn1 [Example 752, {6-[4-(1,5-Dimethyl-1H-imidazol-2-yl)-phenyl]-pyrimidin-4-yl}-[2-(6-fluoro-4-methoxy-2-methyl-indol-1-yl)-ethyl]-amine] | 633 | 85
4 | COc1cc(F)cc2c1cc(C)n2CCNc1cc(-c2ccc(-c3ncnn3C)cc2)ncn1 [Example 753, [2-(6-Fluoro-4-methoxy-2-methyl-indol-1-yl)-ethyl]-{6-[4-(2-methyl-2H-[1,2,4]triazol-3-yl)-phenyl]-pyrimidin-4-yl}-amine] | 548 | 101
5 | COc1cc(F)cc2c1cc(C)n2CCNc1cc(-c2ccc(-c3ncccn3)cc2)ncn1 [Example 755, [2-(6-Fluoro-4-methoxy-2-methyl-indol-1-yl)-ethyl]-[6-(4-pyrimidin-2-yl-phenyl)-pyrimidin-4-yl]-amine] | 452 | 41
6 | COc1ccc(-c2ccc(-c3cc(NCCn4c(C)cc5c(OC)cc(F)cc54)ncn3)cc2)nn1 [Example 756, [2-(6-Fluoro-4-methoxy-2-methyl-indol-1-yl)-ethyl]-{6-[4-(6-methoxy-pyridazin-3-yl)-phenyl]-pyrimidin-4-yl}-amine] | 194 | 85
7 | COc1cnc(-c2ccc(-c3cc(NCCn4c(C)cc5c(OC)cc(F)cc54)ncn3)cc2)nc1 [Example 757, [2-(6-Fluoro-4-methoxy-2-methyl-indol-1-yl)-ethyl]-{6-[4-(5-methoxy-pyrimidin-2-yl)-phenyl]-pyrimidin-4-yl}-amine] | 345 | 44
8 | COc1cc(F)cc2c1cc(C)n2CCNc1cc(-c2ccc(-c3nc(C)cs3)cc2)ncn1 [Example 758, [2-(6-Fluoro-4-methoxy-2-methyl-indol-1-yl)-ethyl]-{6-[4-(4-methyl-thiazol-2-yl)-phenyl]-pyrimidin-4-yl}-amine] | 113 | 32
9 | COc1cc(F)cc2c1cc(C)n2CCNc1cc(-c2ccc(-c3cc(F)ccn3)cc2)ncn1 [Example 759, [2-(6-Fluoro-4-methoxy-2-methyl-indol-1-yl)-ethyl]-{6-[4-(4-fluoro-pyridin-2-yl)-phenyl]-pyrimidin-4-yl}-amine] | 760 | 55
10 | COc1cc(F)cc2c1cc(C)n2CCNc1cc(-c2ccc(-c3nc(C)c(C)s3)cc2)ncn1 [Example 760, {6-[4-(4,5-Dimethyl-thiazol-2-yl)-phenyl]-pyrimidin-4-yl}-[2-(6-fluoro-4-methoxy-2-methyl-indol-1-yl)-ethyl]-amine] | 795 | 90
11 | COc1cncc(-c2ccc(-c3cc(NCCn4c(C)cc5c(OC)cc(F)cc54)ncn3)cc2)n1 [Example 761, [2-(6-Fluoro-4-methoxy-2-methyl-indol-1-yl)-ethyl]-{6-[4-(6-methoxy-pyrazin-2-yl)-phenyl]-pyrimidin-4-yl}-amine] | 161 | 40
12 | COc1cc(F)cc2c1cc(C)n2CCNc1cc(-c2ccc(-c3ncc(F)cn3)cc2)ncn1 [Example 762, [2-(6-Fluoro-4-methoxy-2-methyl-indol-1-yl)-ethyl]-{6-[4-(5-fluoro-pyrimidin-2-yl)-phenyl]-pyrimidin-4-yl}-amine] | 304 | 98
13 | COc1cc(F)cc2c1cc(C)n2CCNc1cc(-c2ccc(-c3cc(N(C)C)ncn3)cc2)ncn1 [Example 763, 6-(4-(6-((2-(6-Fluoro-4-methoxy-2-methyl-1H-indol-1-yl)ethyl)amino)pyrimidin-4-yl)phenyl)-N,N-dimethylpyrimidin-4-amine] | 139 | 25
14 | Cc1cc2ccccc2n1CCNc1cc(-c2ccc(-c3nccs3)cc2)ncn1 [Example 764, [2-(2-Methyl-indol-1-yl)-ethyl]-[6-(4-thiazol-2-yl-phenyl)-pyrimidin-4-yl]-amine] | 815 | 8
15 | CCOc1cc(-c2cc(NCCn3c(C)cc4c(OC)ccc(F)c43)ncn2)ccc1C(=O)NOC [Example 765, 2-Ethoxy-4-{6-[2-(7-fluoro-4-methoxy-2-methyl-indol-1-yl)-ethylamino]-pyrimidin-4-yl}-N-methoxy-benzamide] | 403 | 13
16 | CCONC(=O)c1ccc(-c2cc(NCCn3c(C)cc4c(OC)ccc(F)c43)ncn2)cc1OCC [Example 767, 2,N-Diethoxy-4-{6-[2-(7-fluoro-4-methoxy-2-methyl-indol-1-yl)-ethylamino]-pyrimidin-4-yl}-benzamide] | 251 | 20

Row | SMILES | IC50 (EP4) [nM] | IC50 (EP2) [nM]
17 | CCOc1cc(-c2cc(NCCn3c(C)cc4c(C)ccc(F)c43)ncn2)ccc1C(=O)NOCc1ccccc1 [Example 768, N-Benzyloxy-2-ethoxy-4-{6-[2-(7-fluoro-2,4-dimethyl-indol-1-yl)-ethylamino]-pyrimidin-4-yl}-benzamide] | 928 | 35
18 | CCOc1cc(-c2cc(NCCn3c(C)cc4c(OC)ccc(F)c43)ncn2)ccc1C(=O)NOC(C)C [Example 770, 2-Ethoxy-4-{6-[2-(7-fluoro-4-methoxy-2-methyl-indol-1-yl)-ethylamino]-pyrimidin-4-yl}-N-isopropoxy-benzamide] | 374 | 16
19 | Cc1cc2ccccc2n1CCNc1cc(-c2ccc3c(=O)[nH][nH]c3c2)ncn1 [Example 772, 6-{6-[2-(2-Methyl-indol-1-yl)-ethylamino]-pyrimidin-4-yl}-1,2-dihydro-indazol-3-one] | 317 | 15
20 | COc1ccc(F)c2c1cc(C)n2CCNc1cc(-c2ccc3c(=O)[nH][nH]c3c2)ncn1 [Example 773, 6-{6-[2-(7-Fluoro-4-methoxy-2-methyl-indol-1-yl)-ethylamino]-pyrimidin-4-yl}-1,2-dihydro-indazol-3-one] | 49 | 32
21 | Cc1cc2ccccc2n1CCNc1cc(-c2ccc3c(=O)[nH]oc3c2)ncn1 [Example 774, 6-{6-[2-(2-Methyl-indol-1-yl)-ethylamino]-pyrimidin-4-yl}-benzo[d]isoxazol-3-one] | 637 | 4
22 | CCOc1cc(-c2cc(NCCn3c(Cl)cc4c(OC)ccc(Cl)c43)ncn2)ccc1C(=O)O [Example 775, 4-{6-[2-(2,7-Dichloro-4-methoxy-indol-1-yl)-ethylamino]-pyrimidin-4-yl}-2-ethoxy-benzoic acid] | 206 | 10
23 | CCOc1cc(-c2cc(NCCn3c(Cl)cc4c(OC)ccc(F)c43)ncn2)ccc1C(=O)O [Example 776, 4-{6-[2-(2-Chloro-7-fluoro-4-methoxy-indol-1-yl)-ethylamino]-pyrimidin-4-yl}-2-ethoxy-benzoic acid] | 44 | 6
24 | CCOc1cc(-c2cc(NCCn3c(Cl)cc4c(OC)ccc(F)c43)ncn2)sc1C(=O)O [Example 777, 5-{6-[2-(2-Chloro-7-fluoro-4-methoxy-indol-1-yl)-ethylamino]-pyrimidin-4-yl}-3-ethoxy-thiophene-2-carboxylic acid] | 3 | 2
25 | CCOc1cc(-c2cc(NCCn3c(Cl)cc4c(Cl)ccc(F)c43)ncn2)ccc1C(=O)O [Example 778, 4-{6-[2-(2,4-Dichloro-7-fluoro-indol-1-yl)-ethylamino]-pyrimidin-4-yl}-2-ethoxy-benzoic acid] | 175 | 15
26 | CCOc1cc(-c2cc(NCCn3c(Cl)cc4c(C)ccc(F)c43)ncn2)ccc1C(=O)O [Example 779, 4-{6-[2-(2-Chloro-7-fluoro-4-methyl-indol-1-yl)-ethylamino]-pyrimidin-4-yl}-2-ethoxy-benzoic acid] | 242 | 28
27 | CCOc1cc(-c2cc(NCCn3c(C)cc4c(Br)cccc43)ncn2)ccc1C(=O)O [Example 780, 4-{6-[2-(4-Bromo-2-methyl-indol-1-yl)-ethylamino]-pyrimidin-4-yl}-2-ethoxy-benzoic acid] | 826 | 6
28 | CCOc1cc(-c2cc(NCCn3c(C)cc4c(Br)cccc43)ncn2)sc1C(=O)O [Example 781, 5-{6-[2-(4-Bromo-2-methyl-indol-1-yl)-ethylamino]-pyrimidin-4-yl}-3-ethoxy-thiophene-2-carboxylic acid] | 18 | 1
29 | COc1c(F)cc(Cl)c2c1cc(C)n2CCNc1cc(-c2ccc3c(=O)[nH][nH]c3c2)ncn1 [Example 782, 6-{6-[2-(7-Chloro-5-fluoro-4-methoxy-2-methyl-indol-1-yl)-ethylamino]-pyrimidin-4-yl}-1,2-dihydro-indazol-3-one] | 91 | 39
30 | COc1c(F)cc(Cl)c2c1cc(C)n2CCNc1cc(-c2ccc3[nH][nH]c(=O)c3c2)ncn1 [Example 783, 5-{6-[2-(7-Chloro-5-fluoro-4-methoxy-2-methyl-indol-1-yl)-ethylamino]-pyrimidin-4-yl}-1,2-dihydro-indazol-3-one] | 912 | 271
31 | Cc1ccc(F)c2c1cc(C)n2CCNc1cc(-c2ccc(-c3csc(CC(N)=O)n3)cc2)ncn1 [Example 784, 2-[4-(4-{6-[2-(7-Fluoro-2,4-dimethyl-indol-1-yl)-ethylamino]-pyrimidin-4-yl}-phenyl)-thiazol-2-yl]-acetamide] | 512 | 63
32 | COc1cccc2c1cc(C)n2CCNc1cc(-c2ccc(-c3csc(CC(N)=O)n3)cc2)ncn1 [Example 785, 2-[4-(4-{6-[2-(4-Methoxy-2-methyl-indol-1-yl)-ethylamino]-pyrimidin-4-yl}-phenyl)-thiazol-2-yl]-acetamide] | 906 | 13
